Experiment [1] concerns the target T1, human plasma IgG4 (Homo sapiens, UniProt P01861).
T1 construct: the individual human plasma IgG isoforms: IgG1, IgG2, IgG3, or IgG4; purchased Calbiochem; host or cells: human plasma
The experiment can be described thus: Fluorescence anisotropy binding, Oregon Green labeled peptide. The method, boiled down: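 Oregon Green-labeled peptides binding to human plasma IgG isoforms measured by fluorescence anisotropy. Buffers with 0.01% Tween 20: 10 mM sodium citrate pH 4.0 with 500 mM NaCl; Tris-HCl pH 7.5 with 500 mM NaCl; 10 mM sodium bicarbonate pH 9.5 with or without 500 mM NaCl.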
In general terms: In fluorescence polarisation assays a small probe gives low polarisation when free and higher when bound to something large.

For experiment [2], the system named is human IgG. The experiment can be described thus: Dynamic (mini-column) binding capacity. As for the experimental part: These media were used to determine the effect of ligand density on human IgG binding capacity in both static (filterplate) and dynamic (mini-column) modes with commercial immobilized recombinant Protein A (Repligen, IPA400) at a single density as control.
The IgG solution was loaded onto the column at a flow rate of 0.2 ml/minute (170 cm/hr). […] At the end of the loading period, the column was washed with PBS until the absorbance at 280 nm of the column eluant returned to baseline. […] Neutralizing the pH of the eluted fractions was unnecessary since the total IgG eluted was determined by total protein absorbance at 280 nm.
To establish total media capacities, IgG was loaded onto the columns until the absorbances of the column load and flow through streams were identical (loading to full capacity). After washing the column to baseline, bound IgG was eluted and the total amount captured from this elution fraction determined. The total capacity of the media (mg IgG/ml media) as total IgG captured divided by the column bed volume was calculated.
Additionally, column capacities at 10% breakthrough were calculated from the online A280 measurements of column flowthrough streams. The A280 curves obtained for the column of interest and for an equivalent “blank” column containing hydrolyzed Sepharose FF 4 media were aligned. The difference in areas between these curves (for a retained and non-retained target) from the time of injection to the time at which the A280 value for the column of interest had risen to 10% of the maximum A280 absorbance (100%) obtained for the load solution at 100% IgG capture saturation (10% breakthrough) was graphically integrated. A standard curve was used to relate the integrated area to mg IgG bound and capacity calculated as total IgG bound divided by column bed volume.

Experiment [3] concerns human IgG. Description: Static (filterplate) binding capacity. As for the experimental part: These media were used to determine the effect of ligand density on human IgG binding capacity in both static (filterplate) and dynamic (mini-column) modes with commercial immobilized recombinant Protein A (Repligen, IPA400) at a single density as control. Actual ligand densities obtained ranged from 0.17 to 3.2 μmole/ml media as confirmed by quantitative amino acid analysis.
After incubation of the samples, with shaking, at room temperature for one hour, the supernatant liquid from each well, containing unbound IgG, was collected by centrifugation into the cognate well of a collection plate. The assay plate was washed three times with PBST (200 μl/wash) and bound IgG was eluted from the media samples by incubation for 30-60 minutes at room temperature in 100 μl Elution Buffer (100 mM CAPS, pH 11.5). Eluates were collected by centrifugation for analysis. Protein concentrations were determined from A280 measurements and plotted as a function of mg human IgG bound per ml resin vs. mg human IgG applied per ml resin.
The amount of IgG captured (estimated from IgG recovered in the elution step) by the various media is dependent upon both the IgG concentration and the ligand density. […] Under these static conditions, where both ligand and target concentrations are close to KD values, equilibrium binding is established and total capacities cannot be accurately determined. However, over the IgG range of 0 to 25 mg IgG applied per ml resin (0 to 2.5 mg/ml target added to 10 μl of resin), capture of IgG is linear. Beyond this point, up to a level of 200 mg IgG applied per ml resin, saturation becomes more pronounced.

[4] abbreviates: 10 nM Tris-HCl, 500 mM Sodium Chloride, pH 7.5, read-out: KD (μM) IgG4 pH 7.5 + salt.
The mark [5] stands for this setting: 10 mM Sodium Bicarbonate, 500 mM Sodium Chloride, pH 9.5, read-out: KD (μM) IgG4 pH 9.5 + salt.
Setting [6] is: 10 mM Sodium Bicarbonate, pH 9.5, read-out: KD (μM) IgG4 pH 9.5 − salt.
The mark [7] stands for this setting: 10 mM Sodium Citrate, 500 mM Sodium Chloride, pH 4.0, read-out: KD (μM) IgG4 pH 4.0 + salt.
[8] abbreviates: 10 mM Sodium Citrate, pH 4.0, read-out: KD (μM) IgG4 pH 4.0 − salt.
[9] abbreviates: TBS, 0.01% Tween 20, pH 7.5, read-out: KD (μM) IgG4 TBS.
Setting [10] is: 10 mM Tris-HCl, pH 7.5, read-out: KD (μM) IgG4 pH 7.5 − salt.

Like-named read-outs stand apart in the source and are kept apart here. Positions of bridges follow the written chain, without caps; N, C: chain ends. Residues, ends and D or L forms follow the SMILES beside them.

T1 sequence (P01861 1-327 isoform P01861-1): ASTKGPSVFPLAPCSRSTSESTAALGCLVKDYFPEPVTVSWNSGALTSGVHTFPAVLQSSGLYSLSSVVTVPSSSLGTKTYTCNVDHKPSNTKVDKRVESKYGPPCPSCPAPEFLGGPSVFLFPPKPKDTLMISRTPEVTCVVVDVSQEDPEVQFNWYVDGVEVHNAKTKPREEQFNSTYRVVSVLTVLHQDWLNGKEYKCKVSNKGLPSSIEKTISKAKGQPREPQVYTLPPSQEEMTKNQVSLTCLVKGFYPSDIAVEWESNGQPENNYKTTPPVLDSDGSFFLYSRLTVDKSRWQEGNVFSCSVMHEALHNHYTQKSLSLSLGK

Consider `CC(=O)N[C@@H](C)C(=O)NCC(=O)N[C@@H](C)C(=O)N[C@@H](C)C(=O)N[C@H](C(=O)N[C@H]1CSSC[C@@H](C(=O)N[C@H](C(=O)N[C@@H](CC(=O)O)C(=O)N[C@@H](CO)C(=O)N2CCC[C@H]2C(=O)NCC(=O)N2CCC[C@H]2C(=O)N[C@@H](CCC(=O)O)C(=O)NCC(=O)NCC(=O)NCC(=O)N[C@@H](CCCCN)C(N)=O)[C@@H](C)O)NC(=O)[C@H](Cc2ccccc2)NC(=O)[C@H](Cc2c[nH]c3ccccc23)NC(=O)[C@H](CCC(N)=O)NC(=O)[C@H](Cc2ccc(O)cc2)NC(=O)[C@H](Cc2ccc(O)cc2)NC(=O)[C@H](Cc2c[nH]c3ccccc23)NC(=O)[C@H](Cc2ccc(O)cc2)NC(=O)[C@H](CO)NC(=O)[C@H]([C@@H](C)O)NC(=O)[C@H](CO)NC1=O)[C@@H](C)O` [DX398], for which the Kd in experiment [1] (setting [4]) was more than 10 µM; in experiment [1] (setting [5]) it was more than 10 µM; in experiment [1] (setting [6]), more than 10 µM; in experiment [1] (setting [7]) it was more than 10 µM; in experiment [1] (setting [8]), approximately 2 µM; in experiment [1] (setting [9]), more than 10 µM.
Regarding “Prot. A: immobilized recombinant Protein A (RepliGen Corp., product no. IPA-400), positive control [reference compound]”, the “Capacity at 10% breakthrough as % of total dynamic capacity” value in experiment [2] is on record as “about 75%”. In experiment [2] (Ligand Density not determined), the “Capacity (mg IgG/mL resin) 10% Breakthrough” value is listed as 12.9 mg IgG/mL resin and the “Capacity (mg IgG/mL resin) Total Dynamic” value was found to be 16.3 mg IgG/mL resin. Further, in experiment [3] (Ligand Density not determined), the “Capacity (mg IgG/mL resin) Static” value is 11.1 mg IgG/mL resin.
For “Ac-GDRRACSRDWSGALVWCAGHEPGPEGGGK-NH2 (not fully specified (bridges); printed as Ac-GDRRACSRDWSGALVWCAGHEPGPEGGGK-NH2; cysteine pairing not given here) [DX253]”, the “Capacity (mg IgG/mL resin) 10% Breakthrough” value is 0.1 mg IgG/mL resin in experiment [2] (Ligand Density 0.17 μM/mL), 2.6 mg IgG/mL resin in experiment [2] (Ligand Density 0.84 μM/mL), 2.9 mg IgG/mL resin in experiment [2] (Ligand Density 1.45 μM/mL) and 8.5 mg IgG/mL resin in experiment [2] (Ligand Density 2.75 μM/mL). Besides, the “Capacity (mg IgG/mL resin) Total Dynamic” value in experiment [2] (Ligand Density 0.17 μM/mL) worked out at 0.6 mg IgG/mL resin; in experiment [2] (Ligand Density 0.84 μM/mL), 5.8 mg IgG/mL resin; in experiment [2] (Ligand Density 1.45 μM/mL), 6.4 mg IgG/mL resin; in experiment [2] (Ligand Density 2.75 μM/mL), 24.1 mg IgG/mL resin. Besides, the “Capacity (mg IgG/mL resin) Static” value in experiment [3] (Ligand Density 0.17 μM/mL) worked out at 1.1 mg IgG/mL resin; in experiment [3] (Ligand Density 0.84 μM/mL) it was 8.5 mg IgG/mL resin; in experiment [3] (Ligand Density 1.45 μM/mL), 13.5 mg IgG/mL resin; in experiment [3] (Ligand Density 2.75 μM/mL), 17.4 mg IgG/mL resin.
With `CC(=O)N[C@@H](C)C(=O)NCC(=O)N1CCC[C@H]1C(=O)N[C@@H](Cc1c[nH]cn1)C(=O)N[C@@H](CC(N)=O)C(=O)N[C@H]1CSSC[C@@H](C(=O)N[C@@H](CCCCN)C(=O)N[C@@H](Cc2c[nH]c3ccccc23)C(=O)N[C@@H](Cc2ccccc2)C(=O)N2CCC[C@H]2C(=O)NCC(=O)N2CCC[C@H]2C(=O)N[C@@H](CCC(=O)O)C(=O)NCC(=O)NCC(=O)NCC(=O)N[C@@H](CCCCN)C(N)=O)NC(=O)[C@H](Cc2ccc(O)cc2)NC(=O)[C@H](Cc2c[nH]c3ccccc23)NC(=O)[C@H](Cc2ccc(O)cc2)NC(=O)[C@H](Cc2c[nH]cn2)NC(=O)[C@H](CC(=O)O)NC(=O)[C@H](CC(=O)O)NC1=O` [DX389] (Ac-AGPHNCDDHYWYCKWFPGPEGGGK-NH2; disulfide 6-13 (inferred)), the Kd in experiment [1] (setting [4]), in experiment [1] (setting [5]), in experiment [1] (setting [6]), in experiment [1] (setting [7]), in experiment [1] (setting [8]) and in experiment [1] (setting [10]) was more than 10 µM each time. In addition, the Kd in experiment [1] (setting [9]) is more than 10 µM.
As to `CC(=O)N[C@@H](C)C(=O)NCC(=O)N[C@@H](CCCCN)C(=O)N[C@@H](Cc1ccc(O)cc1)C(=O)N[C@@H](Cc1c[nH]c2ccccc12)C(=O)N[C@H]1CSSC[C@@H](C(=O)N2CCC[C@H]2C(=O)N[C@@H](C)C(=O)N[C@@H](CC(N)=O)C(=O)N2CCC[C@H]2C(=O)NCC(=O)N2CCC[C@H]2C(=O)N[C@@H](CCC(=O)O)C(=O)NCC(=O)NCC(=O)NCC(=O)N[C@@H](CCCCN)C(N)=O)NC(=O)[C@H](C(C)C)NC(=O)CNC(=O)[C@H](Cc2c[nH]c3ccccc23)NC(=O)[C@H](CC(C)C)NC(=O)[C@H](CC(N)=O)NC1=O` [DX395], the Kd in experiment [1] (setting [4]), in experiment [1] (setting [5]), in experiment [1] (setting [6]), in experiment [1] (setting [7]), in experiment [1] (setting [8]) and in experiment [1] (setting [10]) was more than 10 µM in each case. In experiment [1] (setting [9]), the Kd is more than 10 µM.
With `CC[C@H](C)[C@@H]1NC(=O)[C@H](CCCCN)NC(=O)[C@@H](NC(=O)[C@H](Cc2c[nH]c3ccccc23)NC(=O)[C@H](Cc2ccc(O)cc2)NC(=O)[C@H](CO)NC(=O)CNC(=O)[C@H](C)NC(C)=O)CSSC[C@@H](C(=O)N2CCC[C@H]2C(=O)N[C@@H](CCC(N)=O)C(=O)N[C@@H](CO)C(=O)N2CCC[C@H]2C(=O)NCC(=O)N2CCC[C@H]2C(=O)N[C@@H](CCC(=O)O)C(=O)NCC(=O)NCC(=O)NCC(=O)N[C@@H](CCCCN)C(N)=O)NC(=O)[C@H](C(C)C)NC(=O)[C@H](CC(=O)O)NC(=O)[C@H](Cc2c[nH]c3ccccc23)NC1=O` [DX392] (Ac-AGSYWCKIWDVCPQSPGPEGGGK-NH2; disulfide 6-12 (inferred)), the Kd in experiment [1] (setting [4]), in experiment [1] (setting [5]), in experiment [1] (setting [6]), in experiment [1] (setting [7]), in experiment [1] (setting [8]) and in experiment [1] (setting [10]) was more than 10 µM each time. Moreover, in experiment [1] (setting [9]), the Kd was more than 10 µM.

A word on the Kd: it is the free concentration of one partner at which half of the binding sites on the other are occupied at equilibrium, for simple one-to-one binding.

Source of the values: patent US20030199671A1, “Binding molecules for Fc-region polypeptides” (priority 2001, published 2003).
